Measured values from patent publication EP0527427A2, “Catalysts and casting article, method, and composition” (MINNESOTA MINING AND MANUFACTURING COMPANY, priority 1991, dated 1993).

Assays:
[1] = pKa by potentiometric backtitration (compounds of Formula II, Table IX); type: physicochemical; conditions: half-neutralization point taken as pKa; backtitration with 0.01N sodium hydroxide
Experimental: Several of the compounds of the invention were characterized by their titration curves (i.e., their pKa values) as follows: To a 0.1 g sample of a compound of the invention was added with stirring 60 mL of distilled water, then 10 mL of 0.1N hydrochloric acid was added. The solution was stirred for 10 minutes. The pH of the solution was then measured potentiometrically using a Metrohm Model 670 TITROPROCESSOR™ potentiometer (Brinkman Instruments Inc., Westbury, NY) while backtitrating with 0.01N sodium hydroxide solution. The endpoints and half-neutralization points were determined by the instrument, and for the purposes of this determination the half-neutralization point is taken as the pKa.

[2] = pKa by potentiometric backtitration (catalysts, Table I); type: physicochemical; conditions: half-neutralization point taken as pKa; backtitration with 0.1N sodium hydroxide
Experimental: The solution was stirred for 10 minutes, then backtitrated with 0.1N sodium hydroxide solution. The pH during backtitration was measured potentiometrically using a Metrohm Model 670 TITROPROCESSOR™ potentiometer (Brinkman Instruments Inc., Westbury, NY). The endpoint and half-neutralization point were determined by the instrument, and for the purposes of this determination the half-neutralization point is taken as the pKa.

[3] = Khim.-Farm.Zh. 1983, 17, 916; cited from earlier work
[4] = Farm.Zh. (Kiev) 1990, 1, 38; cited from earlier work

| Measured pKa first [1] | Measured pKa second [1] | SMILES | other results |
| --- | --- | --- | --- |
| 8.97 | 6.72 | O=C(CN1CCCC1)OCCN1CCCCC1 [2-(1-piperidino)ethyl 1-pyrrolidineacetate] |  |
|  |  | CN(C)CCOC(=O)CN(C)C [(CH3)2NCH2C(O)OCH2CH2N(CH3)2, 2-(N,N-Dimethylamino)ethyl N,N-Dimethylaminoacetate] | Measured pKa first [2]: 8.53; Measured pKa second [2]: 6.49 |
| 9.26 | 7.12 | O=C(CN1CCCC1)OCCN1CCCC1 [2-(1-Pyrrolidinyl)ethyl 1-Pyrrolidineacetate] |  |
|  |  | CCN(CC)CCOC(=O)CN(C)C [2-(Diethylamino)ethyl dimethylaminoacetate] | analgesic activity [3]: analgesic activity; inotropic activity [4]: significant inotropic activity |
| 9.15 | 7.03 | CN1CCCCC1COC(=O)CN1CCCC1 (stereo not shown) [2-(1-Methylpiperidyl)methyl 1-Pyrrolidineacetate] |  |
